The source of these data is patent US11072591B2, “Tetrazole compounds and their use in the treatment of tuberculosis” (GLAXOSMITHKLINE INTELLECTUAL PROPERTY DEVELOPMENT LIMITED, priority 2017, dated 2021).

Converted amounts (≈) assume the structure as drawn. Where two headings read alike, the source gives them in different places. Where only a bound is given, the exact number is not on record here.

The experiment relates to M. tuberculosis H37Rv. Description: Mycobacterium tuberculosis H37Rv Inhibition Assay (Whole Cell Assay), MIC. It is filed as cell-based.
Setting [1] is: 144 h, M. tuberculosis H37Rv, Middlebrook 7H9 + ADC, 37° C. six days, resazurin readout, read-out: MIC_H37Rv.
Setting [2] is: M. tuberculosis H37Rv whole cell assay, value from repeated testing of the compound, read-out: MIC.

With `Cc1cc(-c2nnn(Cc3ccc(F)cn3)n2)ccc1S(=O)(=O)NCCO` [Example 71, 4-(2-((5-fluoropyridin-2-yl)methyl)-2H-tetrazol-5-yl)-N-(2-hydroxyethyl)-2-methyl Benzenesulfonamide], the MIC under setting [1] was under 0.1 µM. Same read-out and setting: with `Cc1cc(S(=O)(=O)NCCO)ccc1-c1nnn(Cc2ccc(F)cn2)n1` [Example 73, 4-(2-((5-fluoropyridin-2-yl)methyl)-2H-tetrazol-5-yl)-N-(2-hydroxyethyl)-3-methylbenzenesulfonamide] the figure was under 0.1 µM. For `O=S(=O)(NCCO)c1ccc(-c2nnn(Cc3ccc(F)cn3)n2)cc1F` [Example 75, 2-fluoro-4-(2-((5-fluoropyridin-2-yl)methyl)-2H-tetrazol-5-yl)-N-(2-hydroxyethyl) benzenesulfonamide], the MIC under setting [1] was under 0.1 µM and the MIC under setting [2] came to 0.16 µM (≈ 0.0634 µg/mL).

On to `O=S(=O)(NCCO)c1ccc(-c2nnn(CC3CCOCC3)n2)cc1F` [Example 78, 2-fluoro-N-(2-hydroxyethyl)-4-(2-((tetrahydro-2H-pyran-4-yl)methyl)-2H-tetrazol-5-yl)benzenesulfonamide], for which the MIC under setting [1] was under 0.1 µM. For the molecule `O=S(=O)(NCCO)c1ccc(-c2nnn(CC3CCCCC3)n2)cc1F` [Example 79, 4-(2-(cyclohexylmethyl)-2H-tetrazol-5-yl)-2-fluoro-N-(2-hydroxyethyl)benzenesulfonamide], under setting [1], the MIC was under 0.1 µM. Regarding `O=S(=O)(NCCO)c1ccc(-c2nnn(Cc3ccc(F)cn3)n2)c(Cl)c1` [Example 81, 3-chloro-4-(2-((5-fluoropyridin-2-yl)methyl)-2H-tetrazol-5-yl)-N-(2-hydroxyethyl)benzenesulfonamide], the MIC under setting [1] was under 0.1 µM. `O=S(=O)(NCCO)c1c(F)cc(-c2nnn(Cc3ccc(F)cn3)n2)cc1F` [Example 87, 2,6-difluoro-4-(2-((5-fluoropyridin-2-yl)methyl)-2H-tetrazol-5-yl)-N-(2-hydroxyethyl)benzenesulfonamide]: under setting [2], the MIC was at most 0.04 µM.

In the case of `N#CCNS(=O)(=O)c1ccc(-c2nnn(CC3CCOCC3)n2)cc1` [Example 89, N-(cyanomethyl)-4-(2-((tetrahydro-2H-pyran-4-yl)methyl)-2H-tetrazol-5-yl)benzenesulfonamide], under setting [1], the MIC was under 0.1 µM. For the molecule `N#CCNS(=O)(=O)c1ccc(-c2nnn(Cc3cnccn3)n2)cc1` [Example 90, N-(cyanomethyl)-4-(2-(pyrazin-2-ylmethyl)-2H-tetrazol-5-yl)benzenesulfonamide], the MIC under setting [1] is under 0.1 µM. Same read-out and setting: with `Cc1cnc(Cn2nnc(-c3ccc(S(=O)(=O)NCC#N)cc3)n2)cn1` [Example 91, N-(cyanomethyl)-4-(2-((5-methylpyrazin-2-yl)methyl)-2H-tetrazol-5-yl)benzenesulfonamide] the figure was under 0.1 µM; with `COc1cnc(Cn2nnc(-c3ccc(S(=O)(=O)NCC#N)cc3)n2)cn1` [Example 92, N-(cyanomethyl)-4-(2-((5-methoxypyrazin-2-yl)methyl)-2H-tetrazol-5-yl)benzenesulfonamide], 1 to 5 µM. As to `COc1ccc(Cn2nnc(-c3ccc(S(=O)(=O)NCC#N)cc3)n2)cn1` [Example 93, N-(cyanomethyl)-4-(2-((6-methoxypyridin-3-yl)methyl)-2H-tetrazol-5-yl)benzenesulfonamide], under setting [1], the MIC is under 0.1 µM. For the molecule `COc1cc(-c2nnn(CC3CCC(F)(F)CC3)n2)ccc1S(=O)(=O)NCC(N)=O` [Example 95, 2-((4-(2-((4,4-difluorocyclohexyl)methyl)-2H-tetrazol-5-yl)-2-methoxyphenyl)sulfonamido)acetamide], the MIC under setting [1] lay within 1 to 5 µM. Consider `NC(=O)CNS(=O)(=O)c1ccc(-c2nnn(CC3CCCCO3)n2)cc1` (centres unmarked) [Example 96, 2-((4-(2-((tetrahydro-2H-pyran-2-yl)methyl)-2H-tetrazol-5-yl)phenyl)sulfonamido)acetamide], for which the MIC under setting [1] is under 0.1 µM.

As to `O=S(=O)(NCCO)c1ccc(-c2nnn(Cc3ccc(OC(F)(F)F)cc3)n2)cc1` [Example 97], the MIC under setting [1] was 1 to 5 µM. For the molecule `O=S(=O)(NCCO)c1ccc(-c2nnn(Cc3ccc(C(F)(F)F)cc3)n2)cc1` [Example 98], the MIC under setting [1] was in the range of 5 to 10 µM. Still for that read-out and setting: with `CCOc1ccc(Cn2nnc(-c3ccc(S(=O)(=O)NCCO)cc3)n2)cc1` [Example 99] the figure was under 0.1 µM; with `O=S(=O)(NCCO)c1ccc(-c2nnn(CC3CCCCC3)n2)cc1` [Example 100, 4-(2-(cyclohexylmethyl)-2H-tetrazol-5-yl)-N-(2-hydroxyethyl)benzenesulfonamide], under 0.1 µM. Regarding `Cc1ccc(Cn2nnc(-c3ccc(S(=O)(=O)NCCO)cc3)n2)cn1` [Example 101, N-(2-hydroxyethyl)-4-(2-((6-methylpyridin-3-yl)methyl)-2H-tetrazol-5-yl)benzenesulfonamide], the MIC under setting [1] was under 0.1 µM. Consider `O=S(=O)(NCCO)c1ccc(-c2nnn(Cc3cccnc3)n2)cc1` [Example 102, N-(2-hydroxyethyl)-4-(2-(pyridin-3-ylmethyl)-2H-tetrazol-5-yl)benzenesulfonamide], for which the MIC under setting [1] is under 0.1 µM.

As for `O=S(=O)(NCCO)c1ccc(-c2nnn(CC3CCCOC3)n2)cc1` (centres unmarked) [Example 104, N-(2-hydroxyethyl)-4-(2-((tetrahydro-2H-pyran-3-yl)methyl)-2H-tetrazol-5-yl)benzenesulfonamide], the MIC under setting [1] lay in the range of 5 to 10 µM. For `O=S(=O)(NCCO)c1ccc(-c2nnn(CC3CCOCC3)n2)cc1` [Example 105, N-(2-hydroxyethyl)-4-(2-((tetrahydro-2H-pyran-4-yl)methyl)-2H-tetrazol-5-yl)benzenesulfonamide], the MIC under setting [1] fell in the range of 1 to 5 µM. With `O=S(=O)(NCCO)c1ccc(-c2nnn(Cc3ccnnc3)n2)cc1` [Example 106, N-(2-hydroxyethyl)-4-(2-(pyridazin-4-ylmethyl)-2H-tetrazol-5-yl)benzenesulfonamide], the MIC under setting [1] is under 0.1 µM. Regarding `CNS(=O)(=O)c1ccc(-c2nnn(Cc3ccc(C#N)cc3)n2)cc1` [Example 108, 4-(2-(4-cyanobenzyl)-2H-tetrazol-5-yl)-N-methylbenzenesulfonamide], the MIC under setting [1] lay within 1 to 5 µM. Consider `COc1ccc(Cn2nnc(-c3ccc(S(=O)(=O)NCCO)c(OC)c3)n2)nc1` [Example 109, N-(2-hydroxyethyl)-2-methoxy-4-(2-((5-methoxypyridin-2-yl)methyl)-2H-tetrazol-5-yl)benzenesulfonamide], for which the MIC under setting [1] was in the range of 1 to 5 µM. Still for that read-out and setting: with `Cc1cc(S(=O)(=O)NCCO)c(F)cc1-c1nnn(Cc2ccc(F)cn2)n1` [Example 110, 2-fluoro-4-(2-((5-fluoropyridin-2-yl)methyl)-2H-tetrazol-5-yl)-N-(2-hydroxyethyl)-5-methylbenzenesulfonamide] the figure was under 0.1 µM. Consider `C[C@@H](c1ccc(F)cn1)n1nnc(-c2ccc(S(=O)(=O)NCCO)cc2)n1` [Example 111 (S-isomer), (S)-4-(2-(1-(5-fluoropyridin-2-yl)ethyl)-2H-tetrazol-5-yl)-N-(2-hydroxyethyl)benzenesulfonamide], for which, under setting [2], the MIC is 0.6 to 1.88 µM (≈ 0.235 to 0.736 µg/mL).

`C[C@@H](c1ccc(F)cn1)n1nnc(-c2ccc(S(=O)(=O)NCCO)cc2)n1` [Example 111]: the MIC under setting [1] lay within 1 to 5 µM.
